{"source": "patent US7683077B2", "about": "“Piperidine derivative” (Ajinomoto Co., Inc., priority 2003, dated 2010)", "data": [{"molecular_target": "T1, Human 5-HT7a receptor (Homo sapiens, UniProt P34969)", "T1 construct": "host or cells: CHO-K1 (h5HT7-C1 cells)", "T1 sequence (P34969 1-445 isoform P34969-2)": "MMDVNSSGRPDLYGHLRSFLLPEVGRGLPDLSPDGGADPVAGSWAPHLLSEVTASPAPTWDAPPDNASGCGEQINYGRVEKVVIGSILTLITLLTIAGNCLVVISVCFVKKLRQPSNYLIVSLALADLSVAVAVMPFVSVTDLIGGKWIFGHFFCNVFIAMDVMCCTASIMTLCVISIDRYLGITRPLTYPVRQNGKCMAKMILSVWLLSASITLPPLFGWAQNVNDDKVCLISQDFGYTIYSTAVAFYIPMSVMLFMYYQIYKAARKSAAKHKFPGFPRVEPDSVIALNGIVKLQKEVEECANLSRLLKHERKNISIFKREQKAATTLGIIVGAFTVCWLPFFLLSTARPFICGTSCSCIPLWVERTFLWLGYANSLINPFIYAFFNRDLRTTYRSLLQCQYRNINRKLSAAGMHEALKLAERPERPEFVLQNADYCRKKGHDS", "experiment": "Receptor binding assay (RBA) using 5HT-7 expression cells", "details": "not given", "procedure": "(§1) Receptor Binding Assay (RBA) Using 5HT-7 Expression Cells\n(§2) Human 5-HT7a receptor expression CHO—K1 cells (Euroscreen; h5HT7-C1 cells, No. ES-317-C) were cultured in an incubator (CO2: 5%) at 37° C., using Ham's F-12 culture medium containing 400 μg/ml G418, 100 U/ml penicillin, 100 μg/ml streptomycin, and 10% fetal bovine serum. After removal of the culture medium, the cells were washed with phosphate-buffered saline (PBS(−)) free of Ca^2+ and Mg^2+, and then peeled away from a petri dish using HMEE buffer (20 mM HEPES-KOH (pH7.4), 1 mM EDTA, 1 mM EGTA, 2 mM MgCl2). The cells thus collected were homogenized on ice using a Teflon homogenizer, centrifuged at 1,500×g for 5 minutes at 4° C., and the resultant supernatant liquid was then recovered. The supernatant liquid was further centrifuged at 12,000×g for 30 minutes at 4° C. The resultant precipitate was suspended in a HMEE buffer and the resultant suspension was dispensed and flash-frozen in liquid nitrogen. Thus, the frozen product was maintained at −80° C. and melted at room temperature when used in practice. In a 96-well polystyrene round-bottom plate (Falcon, No. 351190), a membrane preparation, the test compound, and 2-[^125I]-(+)-iodo-lysergic acid diethylamide (Perkin Elmer Life Science, No. NEX199) were reacted at room temperature for 3 hours in 50 μL of a binding buffer (50 mM HEPES-NaOH (pH7.4), 1 mM CaCl2, 5 mM MgCl2, 0.5% BSA) in each well. After completion of the reaction, the mixture was trapped by suction into a 96-well GF/B Unifilter plate (Perkin Elmer Life Science, No. 6005177), 50 μL of 0.05% polyethyleneimine being previously added to each well. Each well of the above-mentioned Unifilter plate was washed with about 200 μL of a washing buffer (50 mM HEPES-NaOH (pH7.4), 1 mM CaCl2, 5 mM MgCl2, 0.5 M NaCl, 0.05% Tween-20) three times, and dried overnight. Then, 30 μL of Microscint (Packard, No. NR6013611) was added to each well. The amount of bound 2-[^125I]-(+)-iodo-lysergic acid diethylamide was determined using Top Counter (Packard). The count obtained when 100 μM of crozapine was used as the test compound was fixed at 0%, while the count obtained when no compound was added was fixed at 100%. The binding ratios of 2-[^125I]-(+)-iodo-lysergic acid diethylamide obtained at varied concentrations of the compound were expressed by percentage (%), and the relationship between the concentration of each compound and the binding ratio (%) was approximated to a sigmoid curve. A concentration of the compound corresponding to the binding ratio 50% of 2-[^125I]-(+)-iodo-lysergic acid diethylamide was defined as the value of IC50.", "units": {"IC50": "nM"}, "values": [{"smiles": "CCN1CCC(=C(c2cccc(Cl)c2)c2cc(OC)ccc2OC)CC1", "note": "[Example 58]", "IC50": 15.8}, {"smiles": "COc1ccccc1C(=C1CCN(C)CC1)c1ccc(Cl)c(Cl)c1", "note": "[Example 54]", "IC50": 31.6}]}, {"molecular_target": "T1, Human 5-HT7a receptor", "experiment": "Receptor binding assay (RBA) using 5HT-7 expression cells", "details": "displacement of 2-[125I]-(+)-iodo-lysergic acid diethylamide, membranes of human 5-HT7a CHO-K1 cells; read-out: pIC50 (converted)", "procedure": "as §1, §2", "units": {"IC50": "nM"}, "values": [{"smiles": "COc1ccccc1C(=C1CCN(C)CC1)c1ccc(Cl)s1", "note": "[Example 55]", "IC50": 39.8}, {"smiles": "COc1ccccc1C(=C1CCN(C)CC1)c1cccc(Cl)c1", "note": "[Example 1]", "IC50": 39.8}, {"smiles": "COc1ccc(C)cc1C(=C1CCN(C)CC1)c1cccc(Cl)c1", "note": "[Example 57]", "IC50": 31.6}, {"smiles": "CCCCN1CCC(=C(c2cccc(Cl)c2)c2cc(OC)ccc2OC)CC1", "note": "[Example 60]", "IC50": 100}, {"smiles": "COc1ccccc1C(=C1CCN(CCNS(=O)(=O)c2cc(Cl)ccc2Cl)CC1)c1cccc(Cl)c1", "note": "[Example 49]", "IC50": 10}, {"smiles": "COc1ccc(OC)c(C(=C2CCNCC2)c2cccc(Cl)c2)c1", "note": "[Example 4]", "IC50": 20}, {"smiles": "COc1ccccc1C(=C1CCN(CCCNC(=O)OC(C)(C)C)CC1)c1cccc(Cl)c1", "note": "[Example 36]", "IC50": 100}, {"smiles": "COc1ccccc1C(=C1CCN(C)CC1)c1ccc(C)s1", "note": "[Example 56]", "IC50": 39.8}, {"smiles": "CCCN1CCC(=C(c2cccc(Cl)c2)c2ccccc2OC)CC1", "note": "[Example 7]", "IC50": 31.6}]}, {"molecular_target": "T2, Human 5HT-7 (Homo sapiens, UniProt P34969)", "T2 construct": "host or cells: CHO-K1 (h5HT7-C2 cells)", "T2 sequence (P34969 1-445 isoform P34969-2)": "as above", "experiment": "Evaluation of 5HT-7 agonist activity using 5HT-7 expression cells (cAMP)", "format": "cell-based", "details": "cAMP in h5HT7-C2 CHO-K1 cells; 10 μM serotonin = 100%", "procedure": "Evaluation of 5HT-7 Agonist Activity Using 5HT-7 Expression Cells\nThen, the cAMP concentration was determined using a cAMP EIA kit (RPN225, Amersham) by the method in conformity of the attached protocol (Protocol 2. Acetylation EIA Procedure). […] The cAMP concentrations obtained with varied concentrations of the compound were expressed by percentage (%), and the relationship between the concentration of each compound and the cAMP (%) was approximated to a sigmoid curve. A concentration of the compound corresponding to the cAMP value that is a half the maximum value (Emax) on the approximated sigmoid curve was defined as the value of EC50.", "units": {"EC50": "nM"}, "values": [{"smiles": "COc1ccc(OC)c(C(=C2CCNCC2)c2cccc(Cl)c2)c1", "note": "[Example 4]", "EC50": 87}]}]}
